Article PMC11744668, “2-Cyanopyrimidine-Containing Molecules for N-Terminal Selective Cyclization of Phage-Displayed Peptides” (ACS Chemical Biology, 2025)
“Also recorded” adds a separate entry of the source.

What was measured:
[1] = test system: CA5C phages (N-terminal cysteines displayed on pIII); experiment: Biotin pulldown (capture) assay of CA5C phages; details: 100 μM linker, RT; Biotin-CBT, streptavidin beads; vs control phage AAKAA; n = 3
Description: Following the characterization of the linkers for efficient cyclization of peptides, we then looked to characterize pCAmCP and mCAmCP for reactivity toward phage proteins. Some previously developed linkers that generate macrocyclic peptide libraries on phage hinder phage infectivity, which is likely from modifying cysteines within phage coat proteins.[26]−[28] To test if this occurred in the novel linkers, we performed toxicity assays that reacted the phages with different concentrations of linker (50–200 μM), temperatures (22 or 37 °C), and reaction times (3 or 24 h). […] We expressed phages with a CA5C peptide on the N-terminus of pIII. […] Following the precipitation of the phages, they were again reduced with TCEP and were incubated with a Biotin-CBT compound to label any unreacted N-terminal cysteines with biotin, allowing for phage capture on streptavidin beads (Figure 4B). […] Comparison with capture levels of unreacted phages indicated at least 80% and 70% reactivity of pCAmCP and mCAmCP with the CA5C phages, respectively. […]
The purified CA5C phages (10^11 to 10^12 cfu, 98 μL) in binding buffer were incubated with 1 mM TCEP at 37 °C for 30 min. […] Percent phages captured was calculated by (phages input – phages in supernatant)/phages input × 100.

[2] = test system: CA5C-sfGFP; experiment: Cyclization of CA5C-sfGFP with linkers (LC-ESI-MS); details: 100 μM linker, PBS pH 7.4, 1 mM TCEP; for cyclization of CA5C-sfGFP: 3 h, 22 °C (RT), 500 nM protein; for cyclization of CA5C-sfGFP, optimized (in words): 16 h
Description: The designed organic linkers were tested for their ability to cyclize a CA5C peptide expressed as an N-terminal fusion to sfGFP (CA5C-sfGFP). Following reduction of the protein with 1 mM TCEP for 30 min, 100 μM compounds were reacted with the reduced CA5C-sfGFP for 3 h in PBS (pH 7.4). Following the reaction, the protein was analyzed via electrospray ionization mass spectrometry (ESI-MS) analysis to determine the desired adduct and any potential side reactions that occurred. […] This is likely due to the electron withdrawing effects of the nitrogen atoms adjacent to the nitrile in the 2-cyanopyrimidine derivatives. […] Following previously established Bayesian deconvolution of the mass spectra,[23] protein masses from each reaction (MW = 28,399 Da) corresponded well with that of the expected cyclic product (MW = 28,399 Da). […] This observed mass matches a TCEP-conjugated product resulting from a previously reported competing phospha-Michael addition of TCEP to the acrylamide moiety.[24] This product has a TCEP-functionalized linker that is nonreactive toward the internal cysteine (Figure 2A,B). Following these initial studies, we then further optimized the cyclization of CA5C-sfGFP using pCAmCP and mCAmCP by varying the reaction time, temperature, and concentration of linkers (Figure 2C).
Purified CA5C-sfGFP was diluted to 500 nM in PBS (pH 7.4) containing 1 mM TCEP and left to incubate for 30 min at 37 °C. Linker (100 μM final concentration) or equivalent amounts of DMSO were then added to the solution, and it reacted at varying times (3 or 16 h) and temperatures (22 or 37 °C). All initial tests for reactivity were performed at 22 °C for 3 h, while linkers pCAmCP and mCAmCP were optimized with the additional conditions. The reaction mixtures were then concentrated and exchanged to ammonium bicarbonate (50 mM, pH 8.0) using an Amicon centrifugal filter (MWCO: 10 kDa). Samples were analyzed using a QExactive Orbitrap LC–MS System (Thermo Fisher) and deconvoluted using UniDec software.[23]

[3] = test system: phages (12mer phagemid library); experiment: Phage infectivity (toxicity) assay, colony-forming unit assay; details: 50–200 μM linker, 22 or 37 °C, 3 or 24 h, 1 mM TCEP; cfu assay, n = 3
Description: For all experiments, phages were quantified via a colony-forming unit assay. In this assay, serial dilutions of the phage solution were prepared in 2× YT media, and 10 μL of each dilution was added to 90 μL of log-phase E. coli ER2738. Following the addition of the phage dilutions, the culture was incubated at 37 °C for 45 min, and then 10 μL was spotted in triplicate onto agar selection plates containing either 100 μg/mL ampicillin and 10 μg/mL tetracycline, which were incubated at 37 °C overnight. The following day, colonies in each spot were counted, and this number was used to calculate the number of colony-forming units in the solution.
The purified 12mer phagemid library in binding buffer was incubated with 1 mM TCEP at 37 °C for 30 min. The reduced phages were then reacted with linkers (pCAmCP or mCAmCP) or DMSO equivalents at varying concentrations (50, 100, and 200 μM) and temperatures (22 or 37 °C) for varying times (3 or 24 h). Following incubation under the various conditions, the phage solutions were then titered by using the previously described colony-forming unit assay.

| Compound | percent of phages captured after linker reaction (in words) [1] | cyclization of CA5C-sfGFP [2] [%] | cyclization of CA5C-sfGFP, optimized (in words) [2] | phage toxicity (in words) [3] |
| --- | --- | --- | --- | --- |
| N#Cc1nccc(NC(=O)CCl)n1 [mCAmCP, 2-chloro-N-(2-cyanopyrimidin-4-yl)acetamide] | reduced to levels similar to those of a control phage that lacked N-terminal cysteines | ~70 | nearly complete cyclization of CA5C-sfGFP with no significant side reactions observed | No toxicity was observed under any of the conditions tested; also recorded: without hindering infection |
| N#Cc1ncc(NC(=O)CCl)cn1 [pCAmCP, 2-chloro-N-(2-cyanopyrimidin-5-yl)acetamide] | reduced to levels similar to those of a control phage that lacked N-terminal cysteines | 50 | nearly complete cyclization of CA5C-sfGFP with no significant side reactions observed | No toxicity was observed under any of the conditions tested; also recorded: without hindering infection |
